In publication PMC10455244, “Alpha-Mangostin: A Potent Inhibitor of TRPV3 and Pro-Inflammatory Cytokine Secretion in Keratinocytes” (International Journal of Molecular Sciences, 2023) one finds IC50 and viability data, which are given here for one molecule.

Common to all, as to format: cell-based
One experiment addresses T1, TRPV3 (G573C) (Homo sapiens, UniProt Q8NET8, G573C).
T1 construct: host or cells: HEK 293T (transient transfection, pEGFP-N1 co-transfected as a marker)
T1 sequence (Q8NET8 1-790 G573C): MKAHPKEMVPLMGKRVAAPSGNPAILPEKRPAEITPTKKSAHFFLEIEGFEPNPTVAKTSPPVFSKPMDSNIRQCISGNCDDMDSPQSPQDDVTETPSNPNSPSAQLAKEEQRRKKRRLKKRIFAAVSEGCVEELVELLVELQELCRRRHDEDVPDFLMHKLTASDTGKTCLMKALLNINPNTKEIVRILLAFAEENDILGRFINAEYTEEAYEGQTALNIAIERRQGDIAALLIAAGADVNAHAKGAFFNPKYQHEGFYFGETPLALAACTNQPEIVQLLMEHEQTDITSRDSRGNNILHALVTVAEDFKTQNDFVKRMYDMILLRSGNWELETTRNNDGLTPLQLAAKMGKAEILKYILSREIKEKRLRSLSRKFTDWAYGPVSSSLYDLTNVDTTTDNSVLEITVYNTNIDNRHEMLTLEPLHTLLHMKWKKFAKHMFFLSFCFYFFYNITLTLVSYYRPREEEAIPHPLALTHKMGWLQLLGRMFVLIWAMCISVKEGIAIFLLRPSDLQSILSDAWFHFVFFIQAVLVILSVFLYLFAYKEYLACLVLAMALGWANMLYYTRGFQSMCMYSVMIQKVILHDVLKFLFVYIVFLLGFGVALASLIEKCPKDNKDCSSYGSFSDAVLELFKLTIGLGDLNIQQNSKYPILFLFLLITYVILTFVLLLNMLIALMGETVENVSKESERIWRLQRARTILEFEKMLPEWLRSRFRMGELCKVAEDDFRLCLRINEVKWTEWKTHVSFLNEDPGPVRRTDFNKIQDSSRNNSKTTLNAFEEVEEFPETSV
The experiment in a line: Whole-cell patch-clamp, spontaneous current of TRPV3 G573C mutant in HEK 293T cells. Particulars: −100 mV, read-out: IC50, inhibition of spontaneous current of TRPV3 G573C mutant. How it is done:
For electrophysiology recording and calcium measurement, 10 µM 74a (a TRPV3 inhibitor) was added about 6 h after transfection to inhibit channel activities and prevent cell death. First, the electrophysiology activities of the mutations were recorded using a whole-cell patch-clamp. Our data presented spontaneous TRPV3 currents when −100 mV to 100 mV ramp pulses were applied, which dramatically declined with the addition of 1 µM alpha-mangostin (Figure 4A).
Figure 4 Alpha-mangostin inhibited the activity of hyperactive TRPV3 mutant channels and rescued mutation-induced cell death. (A) Alpha-mangostin inhibited the channel current in representative TRPV3 (G573S)- and TRPV3 (G573C)-expressing HEK 293T cells. […] Currents were normalized to the response at −100 mV before adding alpha-mangostin. (C) Alpha-mangostin inhibited TRPV3-mediated intracellular calcium increase in TRPV3 (G573S)-expressing HEK 293T cells. […] The bar graph on the right summarizes the change in the intracellular calcium rise inhibited by alpha-mangostin. […]
In the whole-cell configuration, voltage ramps from −100 to +100 mV over 1 s were applied every 20 s and the holding potential was set at 0 mV. Sampling at 10 kHz and low-pass filtering at 5 kHz (w-c) were applied for all recorded currents. Recorded data were analyzed using Clampfit ver. […]

The test system of experiment [1] is TRPV3 (G573C)-expressing HEK 293T cells. Put plainly: cells. The settings on record: Homo sapiens, 24 h, read-out: Cell viability (normalized O.D., compared with mock cells). The source says:
(§1) Figure 4 Alpha-mangostin inhibited the activity of hyperactive TRPV3 mutant channels and rescued mutation-induced cell death. (A) Alpha-mangostin inhibited the channel current in representative TRPV3 (G573S)- and TRPV3 (G573C)-expressing HEK 293T cells. […] Currents were normalized to the response at −100 mV before adding alpha-mangostin. (C) Alpha-mangostin inhibited TRPV3-mediated intracellular calcium increase in TRPV3 (G573S)-expressing HEK 293T cells. […] The bar graph on the right summarizes the change in the intracellular calcium rise inhibited by alpha-mangostin. Cells were perfused with calcium-free solutions containing 0 or 1 µM alpha-mangostin or 10 µM 74a before changing to 1.3 mM Ca^2+ solutions containing the same substance concentration. (D) Alpha-mangostin inhibited TRPV3-mediated intracellular calcium increase in TRPV3 (G573C)-expressing HEK 293T cells. […] The bar graph on the right summarizes the change in the intracellular calcium rise inhibited by alpha-mangostin. Cells were perfused with calcium-free solutions containing 0 or 1 µM alpha-mangostin or 10 µM 74a before changing to 1.3 mM Ca^2+ solutions containing the same substance concentration. […]
(§2) The cell counting kit-8 (CCK8; Dojindo Laboratories, Kumamoto, Japan) was employed for viability assay. […] The optical density (O.D., 450 nm) of each well was measured after incubating the cells with CCK-8 solution ([…]) for 2 h. […]

Experiment [2] relates to TRPV3 (G573S)-expressing HEK 293T cells. Put plainly: cells. The settings on record: Homo sapiens, 24 h, read-out: Cell viability (normalized O.D., compared with mock cells).
Excerpt: as §1, §2

For `COc1c(O)cc2oc3cc(O)c(CC=C(C)C)c(O)c3c(=O)c2c1CC=C(C)C` [Alpha-mangostin], the concentration for half-maximal inhibition (IC50) at TRPV3 (G573C) came out at 1940 ± 400 nM. For the same molecule, the viability at 1 µM in experiment [1] turned out to be 93.5%; in experiment [2], 86.8%.
